Laboratory results published in PubChem BioAssay AID330 (DTP/NCI, 2004).
Several values for one entry are separate records, joined by “and”; a condition that tells them apart may be missing. Identical values can stand only once. Inconclusive results and toxic doses are left out. The calls were made as follows: active = survival T/C of 150% or more; inactive = T/C below 125% in these data.

System: P388 leukemia ip, CD2F1 mice, survival T/C
Experiment: NCI In Vivo Anticancer Drug Screen. Data for tumor model P388 Leukemia (intraperitoneal) in CD2F1 (CDF1) mice
Settings: endpoint: median survival time, higher = longer survival
Procedure, shortened: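 Mice carrying the transplanted tumor received test compound or vehicle. Survival was recorded in each group, and the value is the treated-group measurement divided by that of the vehicle-treated control group.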

[1] = dose: 15.0 mg/kg/injection, schedule: Q01DX005 (ip), vehicle: Klucel (hydroxypropylcellulose) (HPC)
[2] = dose: 30.0 mg/kg/injection, schedule: Q01DX005 (ip), vehicle: Klucel (hydroxypropylcellulose) (HPC)
[3] = dose: 60.0 mg/kg/injection, schedule: Q01DX005 (ip), vehicle: Klucel (hydroxypropylcellulose) (HPC)
[4] = dose: 12.5 mg/kg/injection, schedule: Q01DX009 (ip), vehicle: Klucel (hydroxypropylcellulose) (HPC)
[5] = dose: 25.0 mg/kg/injection, schedule: Q01DX009 (ip), vehicle: Klucel (hydroxypropylcellulose) (HPC)
[6] = dose: 50.0 mg/kg/injection, schedule: Q01DX005 (ip), vehicle: Klucel (hydroxypropylcellulose) (HPC)
[7] = dose: 100.0 mg/kg/injection, schedule: Q01DX005 (ip), vehicle: Klucel (hydroxypropylcellulose) (HPC)
[8] = dose: 50.0 mg/kg/injection, schedule: Q01DX009 (ip), vehicle: saline with Tween-80
[9] = dose: 100.0 mg/kg/injection, schedule: Q01DX009 (ip), vehicle: saline with Tween-80
[10] = dose: 200.0 mg/kg/injection, schedule: Q01DX009 (ip), vehicle: saline with Tween-80

Measured: T/C

Cc1cc(N)nc2cc(N)ccc12
inactive: [1] 89 % of control | [2] 99 % of control | [3] 98 % of control

COC(=O)[C@@]12OC[C@]34[C@H]([C@@H](O)[C@@H]1O)[C@@]1(C)CC(=O)C(O)=C(C)[C@@H]1C[C@H]3OC(=O)[C@H](OC(=O)CC(C)C)[C@@H]24
inactive: dose: 0.12 mg/kg/injection, schedule: Q01DX009 (ip), vehicle: saline + alcohol 110 % of control | dose: 0.25 mg/kg/injection, schedule: Q01DX009 (ip), vehicle: saline + alcohol 118 % of control

[O-][N+]12CCCCC1C1CC(C2)C2CCCC(c3ccccc3)N2C1 (stereo not drawn)
inactive: [4] 101 % of control and 105 % of control and 116 % of control | [5] 103 % of control and 112 % of control and 114 % of control

COc1ccc2c(C)cc(N/N=C/c3ccccn3)nc2c1
inactive: dose: 25.0 mg/kg/injection, schedule: Q01DX005 (ip), vehicle: Klucel (hydroxypropylcellulose) (HPC) 102 % of control and 112 % of control | [6] 104 % of control and 118 % of control and 93 % of control | [7] 104 % of control and 112 % of control

CCOC(=O)C(Cc1ccc(N(CCCl)CCCl)cc1)NC(=O)C(Cc1ccc([N+](=O)[O-])cc1)NC(C)=O (stereo not drawn)
inactive: dose: 5.0 mg/kg/injection, schedule: Q04DX003 (ip), vehicle: water 91 % of control | dose: 10.0 mg/kg/injection, schedule: Q04DX003 (ip), vehicle: water 91 % of control | dose: 20.0 mg/kg/injection, schedule: Q04DX003 (ip), vehicle: water 90 % of control | dose: 40.0 mg/kg/injection, schedule: Q04DX003 (ip), vehicle: other 88 % of control | dose: 40.0 mg/kg/injection, schedule: Q04DX003 (ip), vehicle: water 98 % of control | dose: 80.0 mg/kg/injection, schedule: Q04DX003 (ip), vehicle: other 91 % of control | dose: 100.0 mg/kg/injection, schedule: Q04DX003 (ip), vehicle: other 90 % of control | dose: 160.0 mg/kg/injection, schedule: Q04DX003 (ip), vehicle: other 94 % of control | dose: 200.0 mg/kg/injection, schedule: Q04DX003 (ip), vehicle: other 102 % of control | dose: 400.0 mg/kg/injection, schedule: Q04DX003 (ip), vehicle: other 112 % of control

CN(C)C(C#CCO)c1ccccc1 (stereo not drawn)
inactive: dose: 60.0 mg/kg/injection, schedule: Q01DX005 (ip), vehicle: saline 100 % of control | dose: 120.0 mg/kg/injection, schedule: Q01DX005 (ip), vehicle: saline 103 % of control | dose: 240.0 mg/kg/injection, schedule: Q01DX005 (ip), vehicle: saline 101 % of control

NC(=O)c1c[n+]([O-])ccc1[N+](=O)[O-]
inactive: dose: 6.25 mg/kg/injection, schedule: Q01DX009 (ip), vehicle: Klucel (hydroxypropylcellulose) (HPC) 108 % of control | [4] 117 % of control | [5] 117 % of control | dose: 50.0 mg/kg/injection, schedule: Q01DX009 (ip), vehicle: Klucel (hydroxypropylcellulose) (HPC) 119 % of control

Cc1ccc(Br)cc1CCO
inactive: [6] 98 % of control and 97 % of control | [7] 99 % of control and 100 % of control | dose: 200.0 mg/kg/injection, schedule: Q01DX005 (ip), vehicle: Klucel (hydroxypropylcellulose) (HPC) 100 % of control and 120 % of control

O=C(O)C(=O)O.[Cu+2].[NH-]C1CCCC2CCC[N-]C12 (stereo not drawn)
inactive: dose: 7.5 mg/kg/injection, schedule: Q04DX002 (ip), vehicle: suspension in saline 89 % of control | dose: 15.0 mg/kg/injection, schedule: Q04DX002 (ip), vehicle: suspension in saline 92 % of control | dose: 30.0 mg/kg/injection, schedule: Q04DX002 (ip), vehicle: suspension in saline 90 % of control

CCOc1ccc(N=Nc2c(C)nn(C(N)=S)c2OCC)cc1
inactive: [1] 100 % of control | [2] 97 % of control

Cn1nnn(C)c1=NC#N
inactive: dose: 100.0 mg/kg/injection, schedule: Q01DX001 (ip), vehicle: saline 100 % of control | dose: 200.0 mg/kg/injection, schedule: Q01DX001 (ip), vehicle: saline 107 % of control | dose: 400.0 mg/kg/injection, schedule: Q01DX001 (ip), vehicle: saline 100 % of control

C#CC1(OC(=O)Nc2cccc(Cl)c2)CCCCC1
inactive: dose: 12.5 mg/kg/injection, schedule: Q01DX009 (ip), vehicle: saline with Tween-80 91 % of control and 97 % of control | dose: 25.0 mg/kg/injection, schedule: Q01DX009 (ip), vehicle: saline with Tween-80 98 % of control and 110 % of control | [8] 102 % of control and 105 % of control and 90 % of control | [9] 106 % of control and 108 % of control | [10] 97 % of control | dose: 400.0 mg/kg/injection, schedule: Q01DX009 (ip), vehicle: saline with Tween-80 94 % of control

O=P1(c2ccccc2)CCCCN1Cc1ccccc1 (stereo not drawn)
inactive: dose: 100.0 mg/kg/injection, schedule: Q04DX003 (ip), vehicle: saline 108 % of control | dose: 200.0 mg/kg/injection, schedule: Q04DX003 (ip), vehicle: saline 94 % of control | dose: 400.0 mg/kg/injection, schedule: Q04DX003 (ip), vehicle: saline 116 % of control

S=C(N/N=C/c1ccccn1)Nc1ccccn1
inactive: dose: 130.0 mg/kg/injection, schedule: Q04DX003 (ip), vehicle: Klucel (hydroxypropylcellulose) (HPC) 117 % of control | dose: 200.0 mg/kg/injection, schedule: Q04DX003 (ip), vehicle: Klucel (hydroxypropylcellulose) (HPC) 123 % of control | dose: 300.0 mg/kg/injection, schedule: Q04DX003 (ip), vehicle: Klucel (hydroxypropylcellulose) (HPC) 107 % of control

COc1ccc2c(c1)C[N+](C)(CCc1ccccc1)[B-]O2 (stereo not drawn)
inactive: dose: 50.0 mg/kg/injection, schedule: Q01DX005 (ip), vehicle: saline + Tween-80 + alcohol 91 % of control | dose: 100.0 mg/kg/injection, schedule: Q01DX005 (ip), vehicle: saline + Tween-80 + alcohol 93 % of control

COc1cc(C(c2cc3c(cc2O)OCO3)N2CCCCC2)cc(OC)c1OC (stereo not drawn)
inactive: dose: 60.0 mg/kg/injection, schedule: Q01DX005 (ip), vehicle: saline with Tween-80 111 % of control and 118 % of control and 123 % of control | dose: 120.0 mg/kg/injection, schedule: Q01DX005 (ip), vehicle: saline with Tween-80 111 % of control and 118 % of control | dose: 240.0 mg/kg/injection, schedule: Q01DX005 (ip), vehicle: saline with Tween-80 103 % of control | dose: 480.0 mg/kg/injection, schedule: Q01DX005 (ip), vehicle: saline with Tween-80 118 % of control

COc1cc2c(cc1O)C(O)CCCC2 (stereo not drawn)
inactive: [8] 107 % of control | [9] 108 % of control | [10] 110 % of control

O=S(=O)(Cc1ccc(Cl)cc1)Cc1ccc(Cl)cc1
inactive: dose: 100.0 mg/kg/injection, schedule: Q04DX003 (ip), vehicle: saline sonified 100 % of control | dose: 200.0 mg/kg/injection, schedule: Q04DX003 (ip), vehicle: saline sonified 100 % of control | dose: 400.0 mg/kg/injection, schedule: Q04DX003 (ip), vehicle: saline sonified 90 % of control

c1ccc(Nc2ccc(CN3CCCCC3)cc2)cc1
inactive: [3] 93 % of control | dose: 120.0 mg/kg/injection, schedule: Q01DX005 (ip), vehicle: Klucel (hydroxypropylcellulose) (HPC) 99 % of control | dose: 240.0 mg/kg/injection, schedule: Q01DX005 (ip), vehicle: Klucel (hydroxypropylcellulose) (HPC) 87 % of control

NCC(=O)OCN1C(=O)C2C3C=CC(C2C1=O)C1C2C(=O)N(COC(=O)CN)C(=O)C2C31 (stereo not drawn)
inactive: dose: 6.25 mg/kg/injection, schedule: Q01DX009 (ip), vehicle: water 109 % of control | dose: 12.5 mg/kg/injection, schedule: Q01DX009 (ip), vehicle: water 104 % of control | dose: 25.0 mg/kg/injection, schedule: Q01DX009 (ip), vehicle: water 104 % of control and 109 % of control | dose: 25.75 mg/kg/injection, schedule: Q01DX009 (ip), vehicle: water 112 % of control | dose: 50.0 mg/kg/injection, schedule: Q01DX009 (ip), vehicle: water 99 % of control and 115 % of control and 116 % of control | dose: 51.5 mg/kg/injection, schedule: Q01DX009 (ip), vehicle: water 121 % of control | dose: 100.0 mg/kg/injection, schedule: Q01DX009 (ip), vehicle: water 118 % of control | dose: 200.0 mg/kg/injection, schedule: Q01DX009 (ip), vehicle: water 91 % of control
active: dose: 103.0 mg/kg/injection, schedule: Q01DX009 (ip), vehicle: water 203 % of control | dose: 400.0 mg/kg/injection, schedule: Q01DX009 (ip), vehicle: water 173 % of control

CCC(c1ccc(OC)cc1)C(NCC(=O)N/N=C1/C=C2CC[C@H]3[C@@H]4CC[C@H](O)[C@@]4(C)CC[C@@H]3[C@@]2(C)CC1)c1ccc(OC)cc1 (stereo partly drawn)
inactive: dose: 100.0 mg/kg/injection, schedule: Q01DX001 (ip), vehicle: saline with Tween-80 100 % of control | dose: 200.0 mg/kg/injection, schedule: Q01DX001 (ip), vehicle: saline with Tween-80 110 % of control | dose: 400.0 mg/kg/injection, schedule: Q01DX001 (ip), vehicle: saline with Tween-80 107 % of control
